From patent US4237135A, “2-(4-Ethyl-1-piperazinyl)-4-phenylquinoline, process for preparation thereof, and composition thereof” (Dainippon Pharmaceutical Co., Ltd., priority 1978, dated 1980)
Where two headings read alike, the source gives them in different places.

Columns and labels:
[1] = test system: mouse-killing behavior of olfactory bulb-ablated rats; assay: Suppressing effect on mouse-killing behavior in olfactory bulb-ablated rats; type: in vivo, male Wistar strain rats
Experimental: (§1) Pharmacological experiments have been done on the compound of the present invention, some known and novel analogous compounds and an antidepressant on the market, as mentioned below. In the experiments, ED50 was calculated by Litchfield-Wilcoxon method.
Male Wistar strain rats, weighing 240-260 g, which had developed mouse-killing behavior after ablation of the olfactory bulb according to the method of Z. P. Horovitz [Int. J. Neuropharmacol. 5, 405 (1966)], were used in groups of 15 animals each. Each test compound was given intraperitoneally to the rats in 6 different doses, and 1 hours later the rats were each tested as to whether they killed a mouse or not. ED50 was calculated for each compound.

[2] = test system: spontaneous locomotor activity; assay: Inhibitory effect on spontaneous locomotor activity; type: in vivo, male STD-ddY strain mice
Experimental: as §1
Male mice of STD-ddY strain, weighing 20-25 g, were used in groups of 5 mice each. Each test compound was given orally to the mice in 5 different doses, and 2 hours later the spontaneous locomotor activity of each mouse was measured for 3 minutes by means of an Animex locomotor activity meter (made by Farad Electronics). ED50 was calculated for each compound. The ED50 means the dose of test compound in which the locomotor activity was reduced to 50% of that of control group receiving saline.

[3] = test system: spontaneous and methamphetamine-induced locomotor activities; assay: Neuroleptics-like activity, overall (Test 2); type: in vivo, male STD-ddY strain mice; settings: overall conclusion
[4] = test system: hypothermia induced by reserpine; assay: Anti-reserpine activity: antagonistic effect on hypothermia induced by reserpine; type: in vivo, male STD-ddY strain mice; settings: p.o.; for ED50: Mus musculus, po, 4 h, reserpine 5 mg/kg i.p.
Experimental: Pharmacological experiments have been done on the compound of the present invention, some known and novel analogous compounds and an antidepressant on the market, as mentioned below. In the experiments, ED50 was calculated by Litchfield-Wilcoxon method. This effect was examined according to the method of […]. 2, 725 (1963)], using male STD-ddY strain mice weighing 20-25 g. […] Rectal temperature of each mouse was measured 4 hours later with a thermister (Shibaura Electric, BMG III-130).

Acute toxicity = settings: mouse, in vivo, 7 days observation
Experimental: (§2) Male STD-ddY strain mice, weighing 20-25 g, were used. Each test compound was given orally or intraperitoneally to the mice (each group: 10 mice) in 5 to 7 different doses, and their mortality was examined during the observation period of 7 days. The median lethal dose (LD50) was calculated for each compound by the probit method.

mice = assay: Acute toxicity; settings: mouse, in vivo
Experimental: as §2

[5] = test system: catalepsy induced by reserpine; assay: Anti-reserpine activity: antagonistic effect on catalepsy induced by reserpine; type: in vivo, male STD-ddY strain mice; settings: p.o.; for ED50: Mus musculus, po, 1 h, reserpine 5 mg/kg i.p.
Experimental: In the experiments, ED50 was calculated by Litchfield-Wilcoxon method. Male STD-ddY strain mice, weighing […], were used in groups of 10 mice each. […] The mice were tested for catalepsy 1 hour after the administration of test compounds. ED50 was calculated for each compound.

[6] = test system: brain 3-methoxy-4-hydroxyphenylethylene glycol sulfate (MOPEG-SO4); assay: Effect on brain monoamine metabolites: MOPEG-SO4; type: in vivo, male Wistar strain rats; settings: 100 mg/kg p.o.; for Brain MOPEG-SO4, % of control: *P<0.01
Experimental: (§3) Each test compound was given orally to the rats in a dose of 100 mg/kg and, 1, 3 and 6 hours later the rats were sacrificed. […] The concentrations of the monoamine metabolites were calculated in terms of ng/g wet brain tissue and expressed as % of the concentrations of controls receiving saline.

[7] = test system: brain homovanillic acid (HVA); assay: Effect on brain monoamine metabolites: HVA; type: in vivo, male Wistar strain rats; settings: 100 mg/kg p.o.; for Brain HVA, % of control: *P<0.01
Experimental: as §3

[8] = test system: brain 5-hydroxyindoleacetic acid (5-HIAA); assay: Effect on brain monoamine metabolites: 5-HIAA; type: in vivo, male Wistar strain rats; settings: 100 mg/kg p.o.; for Brain 5-HIAA, % of control: *P<0.01
Experimental: as §3

[9] = test system: methamphetamine-induced locomotor activity; assay: Anti-methamphetamine effect (inhibitory effect on methamphetamine-induced locomotor activity); type: in vivo, male STD-ddY strain mice
Experimental: as §1
Male STD-ddY strain mice, weighing 20-25 g, were used in groups of 10 mice each. Groups of mice were injected intraperitoneally with 4 mg/kg of methamphetamine, and 30 minutes later each test compound was injected intraperitoneally in 3 different doses. One hour after the injection of methamphetamine, locomotor activity of each mouse was measured for 10 minutes with an Animex locomotor activity meter.

antidepressant activity = assay: Antidepressant activity, overall (Test 1); type: in vivo, male STD-ddY strain mice; male Wistar strain rats
Experimental: This effect was examined according to the method of […]. 2, 725 (1963)], using male STD-ddY strain mice weighing 20-25 g. […] Rectal temperature of each mouse was measured 4 hours later with a thermister (Shibaura Electric, BMG III-130). […] Male STD-ddY strain mice, weighing […], were used in groups of 10 mice each. […] The mice were tested for catalepsy 1 hour after the administration of test compounds. ED50 was calculated for each compound. […] Male STD-ddY strain mice, weighing 20-25 g, were used in groups of 10 mice each. […] Two hours after the tetrabenazine injection, the degree of eyelid closure (ptosis) was assessed on the basis of macroscopic scoring (0: no closure of the eyelid, 1: 1/4 closure, 2: 2/4 closure, 3: 3/4 closure and 4: complete closure), essentially according to the method of P. A. J. Janssen [Arzneim. Forsch. 15, 104 (1965)]. ED50 was calcuated for each compound. […] Male Wistar strain rats, weighing 240-260 g, which had developed mouse-killing behavior after ablation of the olfactory bulb according to the method of Z. P. Horovitz [Int. J. Neuropharmacol. 5, 405 (1966)], were used in groups of 15 animals each. […] ED50 was calculated for each compound.

## CCN1CCN(c2cc(-c3ccccc3)c3ccccc3n2)CC1.Cl.Cl [A, 2-(4-Ethyl-1-piperazinyl)-4-phenylquinoline dihydrochloride]
[1]; Rattus norvegicus, ip, 1 hour after dosing, read-out: Suppressing effect on mouse-killing behavior of olfactory bulb-ablated rats, ED50
  ED50: 5 mg/kg
[1]; versus imipramine, i.p.
  Suppression of mouse-killing behavior (in words): as potent as imipramine
[2]; Mus musculus, po, 2 hours after dosing, read-out: Spontan. locomotor ED50
  ED50: 58.7 mg/kg
[2]; fraction of chlorpromazine activity, p.o.
  Activity relative to chlorpromazine, spontaneous locomotor activity: about 1/8
[3]
  Neuroleptics-like activity (in words): shows some neuroleptics-like effects
[4]; Table 1, read-out: Anti-reserpine activity ED50, hypothermia
  ED50: 5.8 mg/kg
[4]; Table 2, read-out: Anti-reserpine ED50, hypothermia
  ED50: 5.8 mg/kg
[4]; versus imipramine
  Potency in antagonizing reserpine hypothermia relative to imipramine: 3.7 times more powerful
Acute toxicity; ip
  LD50 at 168 h: 119 mg/kg
Acute toxicity; po
  LD50 at 168 h: 568 mg/kg
mice
  Acute toxicity (in words): comparable to or somewhat weaker than that of imipramine
[5]; Table 1, read-out: Anti-reserpine activity ED50, catalepsy
  ED50: 1.5 mg/kg
[5]; Table 2, read-out: Anti-reserpine ED50, catalepsy
  ED50: 1.5 mg/kg
[5]; versus imipramine
  Potency in antagonizing reserpine catalepsy relative to imipramine: 25.5 times more powerful
[6]
  Brain MOPEG-SO4 concentration / noradrenaline turnover (in words): significant decrease in brain MOPEG-SO4 concentration
[6]; 1 hour
  Brain MOPEG-SO4, % of control: 82 % of control
[6]; 3 hours
  Brain MOPEG-SO4, % of control: 70 % of control
[6]; 6 hours
  Brain MOPEG-SO4, % of control: 63 % of control
[7]
  Brain HVA concentration / dopamine turnover (in words): marked increase in brain HVA concentration
[7]; 1 hour
  Brain HVA, % of control: 193 % of control
[7]; 3 hours
  Brain HVA, % of control: 186 % of control
[7]; 6 hours
  Brain HVA, % of control: 186 % of control
[8]
  Brain 5-HIAA concentration / serotonin turnover (in words): does not affect brain 5-HIAA concentration
[8]; 1 hour
  Brain 5-HIAA, % of control: 118 % of control
[8]; 3 hours
  Brain 5-HIAA, % of control: 110 % of control
[8]; 6 hours
  Brain 5-HIAA, % of control: 116 % of control
[9]; Mus musculus, ip, methamphetamine 4 mg/kg i.p., read-out: Anti-methamphetamine ED50
  ED50: 8 mg/kg
[9]; fraction of chlorpromazine activity, i.p.
  Activity relative to chlorpromazine, methamphetamine-induced locomotor activity: about 1/8
Antidepressant activity; hypothermia and catalepsy, p.o.
  Anti-reserpine activity (in words): more potent anti-reserpine activity than imipramine
Antidepressant activity; overall conclusion
  Antidepressant activity (in words): more potent than its analogues, compounds 1 and 2 and also than imipramine
Antidepressant activity; versus compounds 4 and 5, Table 2, p.o.
  Anti-reserpine and anti-tetrabenazine potency relative to compounds 4 and 5: 2-17 times more potent
